The source of these data is ChEMBL document CHEMBL1138261, “Probing binding requirements of type I and type II isoforms of inosine monophosphate dehydrogenase with adenine-modified nicotinamide adenine dinucleotide analogues” (J Med Chem, 2007).

pIC50, pKi: −log10 of the molar value.

Experiment [1] has as its target Inosine-5'-monophosphate dehydrogenase 1 (Homo sapiens, UniProt P20839). In words: Inhibition of human IMPDH type 1.
Experiment [2] deals with L-lactate dehydrogenase (Bos taurus). In words: Inhibition of bovine heart lactate dehydrogenase.
Experiment [3] can be described thus: Inhibition of horse liver alcohol dehydrogenase. On the set-up: species or system Equus caballus.
In experiment [4] the target is Malate dehydrogenase (Sus scrofa). In words: Inhibition of porcine heart malate dehydrogenase.
For experiment [5], the target named is Inosine-5'-monophosphate dehydrogenase 2 (Homo sapiens, UniProt P12268). The experiment in a line: Inhibition of human IMPDH type 2.
The next experiment relates to K562. The experiment in a line: Antiproliferative activity against human K562 cells after 72 hrs. Format: functional, cell-based. The settings on record: K562, 72 h.

Sequence of Inosine-5'-monophosphate dehydrogenase 1 (P20839 whole entry): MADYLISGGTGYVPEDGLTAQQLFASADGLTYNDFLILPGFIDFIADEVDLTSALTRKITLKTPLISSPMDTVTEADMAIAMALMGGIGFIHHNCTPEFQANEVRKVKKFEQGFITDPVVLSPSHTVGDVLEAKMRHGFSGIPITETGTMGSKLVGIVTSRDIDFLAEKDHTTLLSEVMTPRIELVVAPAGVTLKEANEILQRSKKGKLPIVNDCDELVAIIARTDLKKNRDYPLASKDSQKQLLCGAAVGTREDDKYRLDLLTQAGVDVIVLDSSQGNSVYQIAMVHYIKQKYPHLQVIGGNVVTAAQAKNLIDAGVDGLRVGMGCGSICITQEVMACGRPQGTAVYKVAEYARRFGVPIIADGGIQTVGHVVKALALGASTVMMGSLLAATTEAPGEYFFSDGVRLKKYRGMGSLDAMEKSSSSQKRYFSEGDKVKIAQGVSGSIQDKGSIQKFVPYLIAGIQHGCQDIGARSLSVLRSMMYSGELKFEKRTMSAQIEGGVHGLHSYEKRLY

`C#Cc1nc(N)c2ncn([C@@H]3O[C@H](COP(=O)(O)OP(=O)(O)OC[C@H]4O[C@@H](c5nc(C(N)=O)cs5)[C@H](O)[C@@H]4O)[C@@H](O)[C@H]3O)c2n1`: the negative-log Ki (pKi) – broadly, −log10 of the Ki, conventionally taken in molar units – in experiment [1] is 8.00; in experiment [5] it was 7.31. In addition, the pIC50 in experiment [2], in experiment [3] and in experiment [4] was less than 4.30 throughout.

With `NC(=O)c1csc([C@@H]2O[C@H](COP(=O)(O)OP(=O)(O)OC[C@H]3O[C@@H](n4cnc5c(N)nc(-c6ccccc6)nc54)[C@H](O)[C@@H]3O)[C@@H](O)[C@H]2O)n1`, the pKi in experiment [1] was 7.70; in experiment [5] it was 6.84. Further, the pIC50 in experiment [2] and in experiment [4] was less than 4.30 in each case.

For the compound `NC(=O)c1csc([C@@H]2O[C@H](COP(=O)(O)OP(=O)(O)OC[C@H]3O[C@@H](n4cnc5c(N)nc(NCc6ccccc6)nc54)[C@H](O)[C@@H]3O)[C@@H](O)[C@H]2O)n1`, the results for the pKi in experiment [1] and in experiment [5] were 7.35 and 6.77, respectively. Also, the pIC50 – broadly, the negative decadic logarithm of the IC50, by convention in mol/L – in experiment [2] was less than 4.30; in experiment [4], 4.52.

Turning to `CCc1nc(N)c2ncn([C@@H]3O[C@H](COP(=O)(O)OP(=O)(O)OC[C@H]4O[C@@H](c5nc(C(N)=O)cs5)[C@H](O)[C@@H]4O)[C@@H](O)[C@H]3O)c2n1`, in experiment [1], the pKi was 9.00. The pIC50 in experiment [2], in experiment [3] and in experiment [4] was less than 4.30 each time.

For the compound `NC(=O)c1csc([C@@H]2O[C@H](COP(=O)(O)OP(=O)(O)OC[C@H]3O[C@@H](n4cnc5c(N)nc(I)nc54)[C@H](O)[C@@H]3O)[C@@H](O)[C@H]2O)n1`, the values for the pKi in experiment [1] and in experiment [5] were 7.72 and 7.08, respectively. The pIC50 in experiment [2] and in experiment [4] was less than 4.30 throughout.

`NC(=O)c1csc([C@@H]2O[C@H](COP(=O)(O)OP(=O)(O)OC[C@H]3O[C@@H](n4cnc5c(N)nc(N)nc54)[C@H](O)[C@@H]3O)[C@@H](O)[C@H]2O)n1` gave a pKi in experiment [1] of 8.15. Moreover, the pIC50 in experiment [2], in experiment [3] and in experiment [4] was less than 4.30 throughout.

`COc1c(C)c2c(c(O)c1CCOP(=O)(O)CP(=O)(O)OC[C@H]1O[C@@H](n3cnc4c(N)nc(-c5ccccc5)nc43)[C@H](O)[C@@H]1O)C(=O)OC2`: the pKi in experiment [1] is 7.18; in experiment [5], 6.97. In addition, the pIC50 is 5.96 with K562, less than 4.30 in experiment [2], less than 4.30 in experiment [3] and 4.84 in experiment [4].

For the compound `NC(=O)c1csc([C@@H]2O[C@H](COP(=O)(O)OP(=O)(O)OC[C@H]3O[C@@H](n4cnc5c(N)nc(NCCc6ccccc6)nc54)[C@H](O)[C@@H]3O)[C@@H](O)[C@H]2O)n1`, the negative-log Ki (pKi) is 7.14 in experiment [1] and 6.59 in experiment [5]. In addition, the negative-log IC50 (pIC50) was less than 4.30 in experiment [2] and 4.90 in experiment [4].

On to `C=Cc1nc(N)c2ncn([C@@H]3O[C@H](COP(=O)(O)OP(=O)(O)OC[C@H]4O[C@@H](c5nc(C(N)=O)cs5)[C@H](O)[C@@H]4O)[C@@H](O)[C@H]3O)c2n1`, for which the pKi in experiment [1] is 7.02; in experiment [5], 7.03. Besides, the pIC50 in experiment [2] was less than 4.30; in experiment [3], 4.41; in experiment [4], less than 4.30.

As for `NC(=O)c1csc([C@@H]2O[C@H](COP(=O)(O)OP(=O)(O)OC[C@H]3O[C@@H](n4cnc5c(N)nc(Nc6ccccc6)nc54)[C@H](O)[C@@H]3O)[C@@H](O)[C@H]2O)n1`, the pKi in experiment [1] was 7.35; in experiment [5], 6.82. The pIC50 in experiment [2], in experiment [3] and in experiment [4] was less than 4.30 throughout.

Compound `COc1c(C)c2c(c(O)c1C/C=C(\C)CCC(=O)O)C(=O)OC2` [MYCOPHENOLIC ACID] showed a pIC50 with K562 of 5.11.

On to `NC(=O)c1csc([C@@H]2O[C@H](COP(=O)(O)OP(=O)(O)OC[C@H]3O[C@@H](n4cnc5c(N)ncnc54)[C@H](O)[C@@H]3O)[C@@H](O)[C@H]2O)n1` [TIAZOFURIN ADENINE DINUCLEOTIDE], for which, in the experiment on K562, the negative-log IC50 (pIC50) was 4.91.
